In PubChem BioAssay (NCI):
Values joined by “and” are separate entries in the source; they are usually repeats but may differ in a detail not shown here. Identical values can stand only once.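 Tested at 5 concentrations; 48 h exposure; 96-well plates; endpoints linearly interpolated, else capped at highest concentration. Here, GI50 denotes the concentration required for 50% inhibition of growth. TGI marks complete inhibition of growth.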

Tests used:
Experiment in all cases: NCI anticancer screen, dose series, 48 h
NCI-H23 lung = test system: NCI-H23 lung
CAKI-1 renal = test system: CAKI-1 renal
HL-60(TB) leukemia = test system: HL-60(TB) leukemia
KM12 colon = test system: KM12 colon
MALME-3M melanoma = test system: MALME-3M melanoma
RXF 393 renal = test system: RXF 393 renal
NCI-H460 lung = test system: NCI-H460 lung
A549 NSCLC = test system: A549 NSCLC

| Structure (SMILES) | GI50 (NCI-H23 lung) [µM] | TGI (NCI-H23 lung) | GI50 (CAKI-1 renal) [µM] | TGI (CAKI-1 renal) | GI50 (HL-60(TB) leukemia) | TGI (HL-60(TB) leukemia) | GI50 (KM12 colon) [µM] | TGI (KM12 colon) | GI50 (MALME-3M melanoma) [µM] | TGI (MALME-3M melanoma) [µM] | GI50 (RXF 393 renal) [µM] | TGI (RXF 393 renal) | GI50 (NCI-H460 lung) [µM] | TGI (NCI-H460 lung) | GI50 (A549 NSCLC) [µM] | TGI (A549 NSCLC) |
| --- | --- | --- | --- | --- | --- | --- | --- | --- | --- | --- | --- | --- | --- | --- | --- | --- |
| Cc1cc(C)c(CNC(=O)c2cc(Cl)c3c(c2C)O[C@@](C)(C2CCC(N(C)C)CC2)O3)c(=O)[nH]1 (some centres undefined) | 75.6 | > 100 µM | 93.1 | > 100 µM | 61.5 µM | > 100 µM | > 100 | > 100 µM | 45.3 | > 100 | 15.9 | 71.5 µM | > 100 | > 100 µM | 71.6 | > 100 µM |
| COc1ccc2c(c1)c(-c1nc(-c3cn(C)c4ncccc34)cs1)cn2CCCCN1CCCCC1 | 1.75 | 3.28 µM | – | – | – | – | 1.7 | 3.15 µM | – | – | 1.33 | 2.82 µM | 1.68 | 3.2 µM | 1.74 | 3.21 µM |
| C=C(CN1CCc2ccccc2C1)c1ccc(C(=O)Nc2cccc(N)c2)cc1 | 19.8 | 62.3 µM | 16.3 | 45.1 µM | – | – | 16.5 | 33.7 µM | 15.1 | 34.1 | 19.1 | 43.7 µM | 19.9 | 50 µM | 20.5 | 61.2 µM |
| C=CN(C(=O)N1CCN(c2cc3c(cc2F)c(=O)c(C(=O)O)cn3C2CC2)CC1)c1nc(-c2ccc(C)cc2)cs1 | 3.12 | 16.1 µM | – | – | – | – | 3.45 | > 100 µM | 3.35 | > 100 | 4 | > 100 µM | 3.38 | > 100 µM | 3.17 | > 100 µM |
| Cc1ccccc1C1N=C2Oc3ccccc3C=C2C(=O)N1 (centres undefined) | 2.5 | > 100 µM | 5.46 | > 100 µM | 2.42 µM | 17.7 µM | 15 | > 100 µM | – | – | 0.488 | – | 4.34 | > 100 µM | 3.55 | > 100 µM |
| COC(=O)[C@@H](C)C[C@H](Cc1ccccc1)NC(=O)c1nc([C@@H](C[C@H](C(C)C)N(C)C(=O)[C@@H](NC(=O)[C@H]2CC(=O)CCN2C)C(C)C)OC(C)=O)sc1C(C)C | 0.456 | > 16.7 µM | 0.499 | > 16.7 µM | 0.0529 µM | 0.227 µM | 0.132 | > 6.76 µM | 0.119 | > 16.7 | – | – | 0.27 | > 5.85 µM | 0.775 | > 16.7 µM |
| O=c1c2cc(F)ccc2sc2c(NCCCNCCO)nc3ccc(F)cc3c12 | 1.81 | 3.28 µM | 1.53 | 2.97 µM | – | – | 1.84 | 3.58 µM | 1.63 | 3.15 | 1.51 | 2.95 µM | 1.63 | 3.24 µM | 1.92 | 4.4 µM |
| O=C(c1ccco1)c1c(C(F)(F)F)n([O-])c2cc(Cl)c(Cl)cc2[n+]1=O | 0.545 | 1.36 µM | 0.434 | 1.24 µM | 0.0812 µM | 0.18 µM | 0.186 | 0.75 µM | 0.824 | 1.81 | – | – | 0.121 | 0.361 µM | 1.04 | 2.55 µM |
| CC(=O)O[C@@H]1[C@H]2O[C@H]2[C@H]2O[C@@]2(COC(=O)c2ccccc2)[C@H]1OC(C)=O | – | > 100 µM | – | > 100 µM | – | > 100 µM | – | > 100 µM | – | > 100 | – | – | – | > 100 µM | – | > 100 µM |
| CCc1ccc2cc3c(ccc4ccccc43)c3c2c1CC3 | > 100 | > 100 µM | > 100 | > 100 µM | – | – | > 100 | > 100 µM | > 100 | > 100 | > 100 | > 100 µM | > 100 | > 100 µM | > 100 | > 100 µM |
| O=C(/C=C/c1c[nH]c2ccccc12)c1ccccc1O | – | – | – | – | – | > 100 µM | – | 70.1 µM | – | 29.3 | – | – | – | 28.3 µM | – | 24.5 µM |
| COc1cnc2c(c1)C(=O)c1c-2n(CCCN2CCNCC2)c(=O)c2cc(F)ccc12 | 0.233 | 1.47 µM | – | – | 0.0927 µM | 0.682 µM | 0.168 | 1.16 µM | 1.13 | 2.56 | 0.27 | 1.73 µM | 0.0252 | 0.275 µM | 0.0164 | 0.219 µM |
| Nc1ncnc2c1ncn2C1SC(CO)C(O)C1O (centres undefined) | 35.1 | > 100 µM | 29.5 | > 100 µM | 30.3 µM | 76.2 µM | 23 | > 100 µM | – | – | 80.6 | > 100 µM | 7.88 | 37.9 µM | 26.6 | 73.4 µM |
| CC1SC(c2ccc(OCc3ccccc3)cc2)N(NC(=O)C(O)(c2ccccc2)c2ccccc2)C1=O (centres undefined) | 2.7 | 13.8 µM | 2.49 | 8.6 µM | 1.85 µM | 5.02 µM | 2.29 | 6.32 µM | 2.15 | 10.5 | – | – | 3.53 | 12.9 µM | 4.68 | 20.8 µM |
| COc1cc(-c2nn(-c3cccc(NC(=O)NCCNC(=O)c4ccccc4)c3)cc2-c2ccncc2)ccc1Cl | 3.37 | > 100 µM | – | – | – | – | 2.56 | 40.2 µM | 1.97 | 6.11 | 1.94 | 6.42 µM | 3.56 | > 100 µM | 4.57 | > 100 µM |
| CC1(C)CCC(c2ccc(Cl)cc2)=C(CN2CCN(c3ccc(C(=O)NS(=O)(=O)c4ccc(N[C@H](CCN5CCOCC5)CSc5ccccc5)c(S(=O)(=O)C(F)(F)F)c4)cc3)CC2)C1 | 1.74 | 3.96 µM | 1.72 | 4.09 µM | 0.568 µM | 3.84 µM | 1.72 | 3.42 µM | – | – | 0.322 | 1.94 µM | 1.87 | 3.71 µM | 1.73 | 3.58 µM |
| CC(C)CC(=O)O[C@H]1C(=O)O[C@@H]2C[C@H]3[C@H](C)C(=O)C(O[C@@H]4O[C@H](CO)[C@@H](O)[C@H](O)[C@H]4O)=C[C@]3(C)[C@H]3[C@@H](O)[C@H](O)[C@]4(C(=O)O)OC[C@]32[C@@H]14 | – | > 100 µM | – | – | 41.3 µM | > 100 µM | – | > 100 µM | 22.8 | 56.3 | 10.8 | 38.7 µM | 27.5 | > 100 µM | 42.1 | > 100 µM |
| Cc1nn(-c2ccccc2)c2c1[C@@H](C)[C@H]1CC3(CC4(C)C[C@@H]3C1(C)c1c(C)nn(-c3ccccc3)c1N4C)N2C (some centres undefined) | > 100 | > 100 µM | – | – | – | – | – | – | > 100 | > 100 | 3.41 | 48.2 µM | – | – | – | – |
| Fc1cnccc1-c1nc2ccc3[nH]ncc3c2c2c1CCCC2 | 2.22 | 59.9 µM | – | – | 2.2 µM | 7.3 µM | 0.605 | > 100 µM | 2.76 | 9.06 | 0.612 | 3.29 µM | 1.41 | 7.74 µM | 1.25 | > 100 µM |
| CCN(CC)CCCC(C)Nc1ccnc2cc(OC)ccc12 (centres undefined) | 31.6 | 96.3 µM | 19.6 | 44.4 µM | – | – | 26.4 | > 100 µM | 22.1 | 50.2 | 15.7 | 35.5 µM | > 100 | > 100 µM | 18.3 | 35.5 µM |
| O=C(/C=C/c1ccccc1)c1ccccn1 | – | 33.3 µM and 35.5 µM | – | 33.2 µM and 64.4 µM | 2.55 µM and 16.4 µM | 53.6 µM and 84.8 µM | – | 34.2 µM and 28.5 µM | – | – | – | 37.4 µM and 36.5 µM | – | 32.7 µM and 49.1 µM | – | 46.1 µM and > 100 µM |
| O=c1[nH]c2c(ccc3cnccc32)c2c1CCC2 | 0.394 | > 20.3 µM | 0.308 | > 100 µM | 0.272 µM | – | 0.332 | > 35.7 µM | 0.312 | 0.951 | – | – | 0.376 | > 28.9 µM | 0.5 | > 53.5 µM |
| N#CCC1CCN(c2nc(Nc3ccc(N4CCC(O)CC4)cc3)c3c(=O)[nH]ncc3n2)CC1 | 0.732 | > 100 µM | 0.312 | > 100 µM | – | – | 0.038 | > 100 µM | – | – | 0.303 | 1.3 µM | 0.692 | > 100 µM | 0.455 | > 100 µM |
| O=C(CNC(=O)c1cccc2ccccc12)Nc1ccccc1Oc1ccc(O)cc1 | 2.16 | > 25 µM | – | – | 0.705 µM | 2.06 µM | 0.919 | > 25 µM | – | – | 0.5 | 1.72 µM | 0.969 | > 25 µM | 1.49 | > 25 µM |
| CC[C@H]1CNC(=O)CC1CC(=O)OC (some centres undefined) | – | > 100 µM | – | > 100 µM | – | – | – | > 100 µM | – | > 100 | – | > 100 µM | – | > 100 µM | – | > 100 µM |
